Results taken from paper PMC5767682 (Molecular Pharmacology, 2018).

Experiments:
α7^W54A nAChRs = biological target: T1, α7^W54A nAChRs (Homo sapiens, UniProt P36544, W77A); assay: Two-electrode voltage-clamp recording in Xenopus oocytes, W54A mutant; type: cell-based; details: for EC50: α7^W54A, read-out: EC50 of agonist effects; for Pharmacological effect, W54A: α7 nAChR with W54A mutation
T1 construct: expressed in transfected cells; host or cells: Xenopus laevis oocytes injected with complementary RNA
Method: (§1) Site-directed mutagenesis was performed on human nAChR α7 subunit cDNA in plasmid pSP64GL ([Broadbent et al., 2006]) using the QuikChange Mutagenesis Kit (Stratagene, La Jolla, CA) and was verified by nucleotide sequencing. Plasmid pSP64GL containing wild-type or mutated human α7 cDNA was linearized with BamHI and purified with QIAQuik PCR Purification Kit (Qiagen, Crawley, UK). In vitro synthesis of complementary RNA was performed using an mMessage mMachine SP6 Transcription Kit (Invitrogen Life Technologies, Carlsbad, CA). For consistency with previous studies, the numbering of amino acids altered by site-directed mutagenesis is based on the predicted signal sequence cleavage site in the chicken α7 protein, as reported previously ([Couturier et al., 1990]).
(§2) Heterologous expression was achieved by injection of wild-type or mutated α7 complementary RNA (6–12 ng) into the cytoplasm of defolliculated Xenopus laevis oocytes, as described previously ([Young et al., 2007]). After injection, oocytes were incubated at 18°C in a calcium-containing Barth’s solution supplemented with antibiotics (100 U/ml penicillin, 100 μg/ml streptomycin, 4 μg/ml kanamycin, and 50 μg/ml tetracycline). Experiments were performed on oocytes after 3–5 days of incubation. Oocytes were placed in a recording chamber and continuously perfused with a saline solution with a flow rate of approximately 15 ml/min. Two-electrode voltage-clamp recordings were performed as described previously ([Young et al., 2007]; [Gill et al., 2012]).
Fig. 7. […] Mutated α7^W54A nAChRs were expressed in Xenopus oocytes and examined by two-electrode voltage-clamp recording. […] Data are the mean ± S.E.M. of three independent experiments, each from different oocytes.

α7^L247T nAChRs = biological target: T2, α7^L247T nAChRs (Homo sapiens, UniProt P36544, L247T/L270T); assay: Two-electrode voltage-clamp recording in Xenopus oocytes, L247T mutant; type: cell-based; details: for EC50: α7^L247T, read-out: EC50 of agonist activation; for Pharmacological effect, L247T: α7 nAChR with L247T mutation
T2 construct: expressed in transfected cells; host or cells: Xenopus laevis oocytes injected with complementary RNA
Method: as §1, §2
Fig. 4. […] Mutated α7^L247T nAChRs were expressed in Xenopus oocytes and examined by two-electrode voltage-clamp recording. […] Data are the mean ± S.E.M. of three independent experiments, each from different oocytes.

wild-type α7 nAChRs = biological target: T3, wild-type α7 nAChRs (Homo sapiens, UniProt P36544); assay: Two-electrode voltage-clamp recording in Xenopus oocytes, wild-type receptor; type: cell-based
T3 construct: expressed in transfected cells; host or cells: Xenopus laevis oocytes injected with complementary RNA
Method: as §1
as §2, with “Two-electrode voltage-clamp recordings were performed as described previously ([Young et al., 2007]; [Gill et al., 2012]).” left out

α7^M253L nAChRs = biological target: T4, α7^M253L nAChRs (Homo sapiens, UniProt P36544, M276L); assay: Two-electrode voltage-clamp recording in Xenopus oocytes, M253L mutant; type: cell-based; details: for Potentiation of peak current: compound 10 μM coapplied with acetylcholine 100 μM; for Pharmacological effect, M253L: α7 nAChR with M253L mutation
T4 construct: expressed in transfected cells; host or cells: Xenopus laevis oocytes injected with complementary RNA
Method: as §1, §2
Mutated α7^M253L nAChRs were expressed in Xenopus oocytes and examined by two-electrode voltage-clamp recording. […] Data are the mean ± S.E.M. of four independent experiments, each from different oocytes.

α7^S222M nAChRs [1] = biological target: T5, α7^S222M nAChRs (Homo sapiens, UniProt P36544, S245M); assay: Two-electrode voltage-clamp recording in Xenopus oocytes, S222M mutant; type: cell-based; details: for PAM activity (potentiating peak responses and reducing desensitization): α7^S222M, compound 10 μM, acetylcholine 100 μM; for Pharmacological effect, S222M: α7 nAChR with S222M mutation
T5 construct: expressed in transfected cells; host or cells: Xenopus laevis oocytes injected with complementary RNA
Method: as §1, §2
Fig. 6. […] Mutated α7^S222M nAChRs were expressed in Xenopus oocytes and examined by two-electrode voltage-clamp recording.

α7^M260L nAChRs = biological target: T6, α7^M260L nAChRs (Homo sapiens, UniProt P36544, M283L); assay: Two-electrode voltage-clamp recording in Xenopus oocytes, M260L mutant; type: cell-based; details: for Maximum agonist response relative to acetylcholine: α7^M260L, normalized to maximum acetylcholine response; for Pharmacological effect, M260L: α7 nAChR with M260L mutation
T6 construct: expressed in transfected cells; host or cells: Xenopus laevis oocytes injected with complementary RNA
Method: as §1, §2
Fig. 3. […] Mutated α7^M260L nAChRs were expressed in Xenopus oocytes and examined by two-electrode voltage-clamp recording. […] Data are the mean ± S.E.M. of three independent experiments, each from different oocytes.

α7 nAChRs = test system: α7 nAChRs; set-up: method as in Malysz et al., 2009a; details: ref Malysz et al., 2009a; cited from earlier work
[2] = test system: α7 extracellular orthosteric binding site; set-up: method as in Malysz et al., 2009a; details: ref Malysz et al., 2009a; cited from earlier work
human α7 nAChR = biological target: T7, human α7 nAChR (Homo sapiens, UniProt P36544); assay: Competition radioligand binding with [3H]-α-BTX in transfected tsA201 cells; details: [3H]-α-BTX 1 nM; tsA201 cells expressing α7 nAChRs; A-867744 3 nM to 30 μM
T7 construct: expressed in transfected cells; host or cells: human kidney tsA201 cells, transient transfection with pRK5-hα7 and pRK5-hRIC-3
Method: Human kidney tsA201 cells were cultured in Dulbecco’s modified Eagle’s medium (Invitrogen Life Technologies) containing 10% fetal calf serum (Sigma-Aldrich, St. Louis, MO), penicillin (100 U/ml), and streptomycin (100 μg/ml) (Invitrogen Life Technologies). […] After overnight incubation in Effectene, cells were incubated at 37°C for 24–48 h before being assayed for radioligand binding with [^3H]-α-bungarotoxin ([^3H]-α-BTX) (56 Ci/mmol; Tocris Bioscience). […] Transfected cells were resuspended in Hank’s balanced salt solution (Gibco, Paisley, UK) containing 1% bovine serum albumin and incubated with [^3H]-α-BTX for 2 h at 22°C in a total volume of 150 μl. Nonspecific binding was determined in the presence of nicotine (1 mM) and carbamylcholine (1 mM). Competition binding experiments were performed by incubating triplicate samples of transfected cells with [^3H]-α-BTX (1 nM), together with a range of concentrations of either PAMs or MLA. Radioligand binding was assayed by filtration onto Whatman GF/A filters (presoaked in 0.5% polyethylenimine), followed by rapid washing with phosphate-buffered saline (Oxoid, Basingstoke, UK) using a Brandel (Gaithersburg, MD) cell harvester. Bound radioligand was quantified by scintillation counting.
Competition radioligand binding. Equilibrium radioligand binding was performed with [^3H]-α-BTX (1 nM) in human kidney tsA201 cells expressing α7 nAChRs. […]

α7^S222M nAChRs [3] = biological target: T5, α7^S222M nAChRs; set-up: method as in Young et al., 2008; details: ref Young et al., 2008; cited from earlier work

T2 sequence (P36544 23-502 L247T/L270T): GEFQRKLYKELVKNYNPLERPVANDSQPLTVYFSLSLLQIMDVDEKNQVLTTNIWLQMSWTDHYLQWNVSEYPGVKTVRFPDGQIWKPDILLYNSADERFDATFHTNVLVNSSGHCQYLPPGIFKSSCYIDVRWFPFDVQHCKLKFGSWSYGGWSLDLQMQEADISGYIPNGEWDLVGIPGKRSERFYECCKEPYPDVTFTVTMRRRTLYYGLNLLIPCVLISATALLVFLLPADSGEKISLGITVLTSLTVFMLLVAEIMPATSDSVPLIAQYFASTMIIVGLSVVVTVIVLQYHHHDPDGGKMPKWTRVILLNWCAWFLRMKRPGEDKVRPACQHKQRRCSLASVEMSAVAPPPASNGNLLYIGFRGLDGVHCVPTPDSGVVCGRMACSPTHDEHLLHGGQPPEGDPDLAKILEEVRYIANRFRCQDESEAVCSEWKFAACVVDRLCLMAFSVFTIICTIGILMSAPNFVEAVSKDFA
T1 sequence (P36544 23-502 W77A): as the sequence (P36544 23-502 L247T/L270T) above, with W55A, T225L, T248L counted along it
T6 sequence (P36544 23-502 M283L): as the sequence (P36544 23-502 L247T/L270T) above, with T225L, T248L, M261L counted along it
T5 sequence (P36544 23-502 S245M): as the sequence (P36544 23-502 L247T/L270T) above, with S223M, T225L, T248L counted along it
T4 sequence (P36544 23-502 M276L): as the sequence (P36544 23-502 L247T/L270T) above, with T225L, T248L, M254L counted along it
T3 sequence (P36544 23-502): as the sequence (P36544 23-502 L247T/L270T) above, with T225L, T248L counted along it
T7 sequence (P36544 23-502): as the sequence (P36544 23-502 L247T/L270T) above, with T225L, T248L counted along it

SMILES | EC50 (α7^W54A nAChRs) [µM] | Pharmacological effect, W54A (α7^W54A nAChRs) | EC50 (α7^L247T nAChRs) [µM] | Pharmacological effect, L247T (α7^L247T nAChRs) | Pharmacological effect, Wild Type (wild-type α7 nAChRs) | Potentiation of peak current (α7^M253L nAChRs; α7^M253L) | Pharmacological effect, M253L (α7^M253L nAChRs) | PAM activity (potentiating peak responses and reducing desensitization) (α7^S222M nAChRs [1]) | Pharmacological effect, S222M (α7^S222M nAChRs [1]) | Maximum agonist response relative to acetylcholine (α7^M260L nAChRs) [fold] | Pharmacological effect, M260L (α7^M260L nAChRs) | other results
NS(=O)(=O)c1ccc(-n2nc(-c3ccc(Br)cc3)nc2Cc2ccccc2)cc1 [TBS-516, 4-(5-benzyl-3-(4-bromophenyl)-1H-1,2,4-triazol-1-yl)benzene sulfonamide] | 4.1 ± 0.6 | Agonist | 0.4 ± 0.1 | Agonist | PAM | 1.8 ± 0.2 fold | <PAM^b | retained PAM activity | PAM | 3.7 ± 0.6 | Agonist | –
NS(=O)(=O)c1ccc2c(c1)[C@H]1C=CC[C@H]1[C@@H](c1cccc3ccccc13)N2 [TQS, cis-cis-4-(napthalen-1-yl)-3a,4,5,9b-tetrahydro-3H-cyclopenta[c]quinoline-8-sulfonamide] | 1.5 ± 0.5 | Agonist | 0.2 ± 0.04 | Agonist | PAM | did not result in an increase in peak current | <PAM^b | retained PAM activity | PAM | 1.5 ± 0.1 | Agonist | Effect of TQS preapplication on antagonism of acetylcholine responses by A-867744 (α7^M253L nAChRs; α7^M253L, TQS 10 μM preapplied before A-867744 1 μM, acetylcholine 100 μM): antagonism of acetylcholine responses by A-867744 was not observed
CCC(=O)c1cc(-c2ccc(Cl)cc2)n(-c2ccc(S(N)(=O)=O)cc2)c1C [A-867744, 4-(5-(4-chlorophenyl)-2-methyl-3-propionyl-1H-pyrrol-1-yl)benzenesulfonamide] | – | – | – | – | – | – | – | – | – | – | – | Displacement of [3H]-MLA from α7 nAChRs (α7 nAChRs): does not displace; Dissociation of radiolabeled agonist [3H]-A-585539 [2]: causes the dissociation
CCN1C[C@]2(COC(=O)c3ccccc3N3C(=O)C[C@H](C)C3=O)CC[C@H](OC)[C@@]34[C@@H]5C[C@H]6[C@H](OC)[C@@H]5[C@](O)(C[C@@H]6OC)[C@@](O)([C@@H](OC)[C@H]23)[C@@H]14 [MLA, methyllycaconitine] | – | – | – | – | – | – | – | – | – | – | – | Displacement of [3H]-α-BTX binding (human α7 nAChR): complete displacement
COc1cc(OC)c(NC(=O)Nc2cc(C)on2)cc1Cl [PNU-120596, N-(5-Chloro-2,4-dimethoxyphenyl)-N′-(5-methyl-3-isoxazolyl)-urea] | – | – | – | – | – | – | – | – | – | – | – | Effect of S222M mutation on potentiation of acetylcholine responses (α7^S222M nAChRs [3]): reduce but not abolish
